Assay results as given in patent publication US11446287B2, “Compounds and methods for EP300 or CBP modulation and indications therefor” (Opna Immuno-Oncology SA, priority 2019, dated 2022).
pIC50: −log10 of the molar value.

The compounds below were run against T1, Recombinant human BRD4 containing dual bromodomains (BRD4-BD12 (1-477)) (Homo sapiens, UniProt O60885) (assay: BRD4 Alphascreen binding assay).
T1 construct: Recombinant human BRD4 containing dual bromodomains (BRD4-BD12 (1-477)); made in house; host or cells: E. coli BL21-CodonPlus (DE3), modified pET vector
Outline: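 His-tagged human BRD4 tandem bromodomains (1-477, E. coli) incubated 1 h at room temperature with biotinylated tetra-acetylated H4 (1-21) peptide and compound in HEPES pH 7.5 buffer with 2 mM DTT. AlphaScreen signal read 30 min after adding beads (7.5 μg/ml); IC50 from four-parameter fit after normalization to controls.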

SMILES | pIC50
Cc1noc(C)c1-c1cnc2c(c1)c(-c1ccc(C(=O)O)cc1)cn2C(C)c1ncccn1 (centres unmarked) [P-0013, 4-(5-(3,5-dimethylisoxazol-4-yl)-1-(1-(pyrimidin-2-yl)ethyl)-1H-pyrrolo[2,3-b]pyridin-3-yl)benzoic acid] | 3.00 to 5.10
Cc1noc(C)c1-c1cnc2c(c1)c(-c1ccc(C(=O)O)cc1)cn2C(C)c1ccc(F)cn1 (centres unmarked) [P-0014, 4-(5-(3,5-dimethylisoxazol-4-yl)-1-(1-(5-fluoropyridin-2-yl)ethyl)-1H-pyrrolo[2,3-b]pyridin-3-yl)benzoic acid] | 3.00 to 5.10
Cc1noc(C)c1-c1cnc2c(c1)c(-c1cccc(C(=O)O)c1)cn2C(c1ccccn1)C1CCCC1 (centres unmarked) [P-0015, 3-(1-(cyclopentyl(pyridin-2-yl)methyl)-5-(3,5-dimethylisoxazol-4-yl)-1H-pyrrolo[2,3-b]pyridin-3-yl)benzoic acid] | 5.10 to 6.00
Cc1noc(C)c1-c1cnc2c(c1)c(-c1ccc(F)c(C(=O)O)c1)cn2C(c1ccccn1)C1CCCC1 (centres unmarked) [P-0016, 5-(1-(cyclopentyl(pyridin-2-yl)methyl)-5-(3,5-dimethylisoxazol-4-yl)-1H-pyrrolo[2,3-b]pyridin-3-yl)-2-fluorobenzoic acid] | 5.10 to 6.00
Cc1noc(C)c1-c1cnc2c(c1)c(-c1ccnc(C(=O)O)c1)cn2C(c1ccccn1)C1CCCC1 (centres unmarked) [P-0017, 4-(1-(cyclopentyl(pyridin-2-yl)methyl)-5-(3,5-dimethylisoxazol-4-yl)-1H-pyrrolo[2,3-b]pyridin-3-yl)picolinic acid] | 5.10 to 6.00
Cc1noc(C)c1-c1cnc2c(c1)c(-c1cccc(CC(=O)O)c1)cn2C(c1ccccn1)C1CCCC1 (centres unmarked) [P-0018, 2-(3-(1-(cyclopentyl(pyridin-2-yl)methyl)-5-(3,5-dimethylisoxazol-4-yl)-1H-pyrrolo[2,3-b]pyridin-3-yl)phenyl)acetic acid] | 5.10 to 6.00
Cc1noc(C)c1-c1cnc2c(c1)c(-c1ccncc1)cn2C(c1ccccn1)C1CCCC1 (centres unmarked) [P-0019, 4-(1-(cyclopentyl(pyridin-2-yl)methyl)-3-(pyridin-4-yl)-1H-pyrrolo[2,3-b]pyridin-5-yl)-3,5-dimethylisoxazole] | 5.10 to 6.00
Cc1noc(C)c1-c1cnc2c(c1)c(-c1ccc(C(=O)O)cc1OC1CC1)cn2[C@@H](C)c1ccccn1 [P-0170, (S)-3-cyclopropoxy-4-(5-(3,5-dimethylisoxazol-4-yl)-1-(1-(pyridin-2-yl)ethyl)-1H-pyrrolo[2,3-b]pyridin-3-yl)benzoic acid] | 3.00 to 5.10
Cc1noc(C)c1-c1cnc2c(-c3ccc(C(=O)O)cc3C#CC3CC3)cn([C@@H](C)c3ccccn3)c2c1 [P-0171, (S)-3-(cyclopropylethynyl)-4-(6-(3,5-dimethylisoxazol-4-yl)-1-(1-(pyridin-2-yl)ethyl)-1H-pyrrolo[3,2-b]pyridin-3-yl)benzoic acid] | 6.00 to 10.00
COc1ccc(C(=O)O)cc1-c1cn(C(C)(c2ccccn2)c2ccccn2)c2cc(-c3c(C)noc3C)cnc12 [P-0172, 3-(1-(1,1-di(pyridin-2-yl)ethyl)-6-(3,5-dimethylisoxazol-4-yl)-1H-pyrrolo[3,2-b]pyridin-3-yl)-4-methoxybenzoic acid] | 5.10 to 6.00
CCOc1cc(C(=O)O)cc(OCC)c1-n1cc(-c2cccnc2)c2ncc(-c3c(C)noc3C)cc21 [P-0173, 4-(6-(3,5-dimethylisoxazol-4-yl)-3-(pyridin-3-yl)-1H-pyrrolo[3,2-b]pyridin-1-yl)-3,5-diethoxybenzoic acid] | 5.10 to 6.00
CCOc1cc(C(=O)O)cc(OC(C)C)c1-c1cn([C@@H](C)c2ccccn2)c2ncc(-c3c(C)noc3C)cc12 [P-0174, (S)-4-(5-(3,5-dimethylisoxazol-4-yl)-1-(1-(pyridin-2-yl)ethyl)-1H-pyrrolo[2,3-b]pyridin-3-yl)-3-ethoxy-5-isopropoxybenzoic acid] | 3.00 to 5.10
Cc1noc(C)c1-c1cnc2c(c1)c(-c1ccc(C(=O)O)cc1OC(F)(F)F)cn2-c1cccnc1 [P-0175, 4-(5-(3,5-dimethylisoxazol-4-yl)-1-(pyridin-3-yl)-1H-pyrrolo[2,3-b]pyridin-3-yl)-3-(trifluoromethoxy)benzoic acid] | 5.10 to 6.00
COc1ccncc1-n1cc(-c2ccc(C(=O)O)cc2OC(F)(F)F)c2cc(-c3c(C)noc3C)cnc21 [P-0176, 4-(5-(3,5-dimethylisoxazol-4-yl)-1-(4-methoxypyridin-3-yl)-1H-pyrrolo[2,3-b]pyridin-3-yl)-3-(trifluoromethoxy)benzoic acid] | 5.10 to 6.00
Cc1noc(C)c1-c1cnc2c(c1)c(-c1ccc(C(=O)O)cc1OC(F)(F)F)cn2-c1cnccc1Cl [P-0177, 4-(1-(4-chloropyridin-3-yl)-5-(3,5-dimethylisoxazol-4-yl)-1H-pyrrolo[2,3-b]pyridin-3-yl)-3-(trifluoromethoxy)benzoic acid] | 3.00 to 5.10
Cc1noc(C)c1-c1cnc2c(c1)c(-c1ccc(C(=O)O)cc1C#CC1CC1)cn2[C@@H](C)c1ccccn1 [P-0178, (S)-3-(cyclopropylethynyl)-4-(5-(3,5-dimethylisoxazol-4-yl)-1-(1-(pyridin-2-yl)ethyl)-1H-pyrrolo[2,3-b]pyridin-3-yl)benzoic acid] | 3.00 to 5.10
Cc1noc(C)c1-c1cnc2c(c1)c(-c1ccc(C(=O)O)cc1OC1CCC1)cn2[C@@H](C)c1ccccn1 [P-0179, (S)-3-cyclobutoxy-4-(5-(3,5-dimethylisoxazol-4-yl)-1-(1-(pyridin-2-yl)ethyl)-1H-pyrrolo[2,3-b]pyridin-3-yl)benzoic acid] | 3.00 to 5.10
Cc1noc(C)c1-c1cnc2c(c1)c(-c1ccc(C(=O)O)cc1OC(F)(F)F)cn2-c1ncccc1C(F)(F)F [P-0180, 4-(5-(3,5-dimethylisoxazol-4-yl)-1-(3-(trifluoromethyl)pyridin-2-yl)-1H-pyrrolo[2,3-b]pyridin-3-yl)-3-(trifluoromethoxy)benzoic acid] | 3.00 to 5.10
Cc1noc(C)c1-c1cnc2c(c1)c(-c1ccc(C(=O)O)cc1C1CC1)cn2[C@@H](C)c1ccccn1 [P-0181, (S)-3-cyclopropyl-4-(5-(3,5-dimethylisoxazol-4-yl)-1-(1-(pyridin-2-yl)ethyl)-1H-pyrrolo[2,3-b]pyridin-3-yl)benzoic acid] | 3.00 to 5.10
Cc1noc(C)c1-c1cnc2c(c1)c(-c1ccc(C(=O)O)cc1OC(F)(F)F)cn2-c1ncccc1F [P-0182, 4-(5-(3,5-dimethylisoxazol-4-yl)-1-(3-fluoropyridin-2-yl)-1H-pyrrolo[2,3-b]pyridin-3-yl)-3-(trifluoromethoxy)benzoic acid] | 5.10 to 6.00
Cc1noc(C)c1-c1cnc2c(c1)c(-c1ccc(C(=O)O)cc1OC(F)(F)F)cn2-c1ncccc1Cl [P-0183, 4-(1-(3-chloropyridin-2-yl)-5-(3,5-dimethylisoxazol-4-yl)-1H-pyrrolo[2,3-b]pyridin-3-yl)-3-(trifluoromethoxy)benzoic acid] | 3.00 to 5.10
CCOc1cc(C(=O)O)cc(OCC)c1-n1cc(-c2ccc(F)cc2)c2ncc(-c3c(C)noc3C)cc21 [P-0184, 4-(6-(3,5-dimethylisoxazol-4-yl)-3-(4-fluorophenyl)-1H-pyrrolo[3,2-b]pyridin-1-yl)-3,5-diethoxybenzoic acid] | 5.10 to 6.00
CCOc1cc(C(=O)O)cc(OCC)c1-n1cc(-c2cccc(Cl)c2)c2ncc(-c3c(C)noc3C)cc21 [P-0185, 4-(3-(3-chlorophenyl)-6-(3,5-dimethylisoxazol-4-yl)-1H-pyrrolo[3,2-b]pyridin-1-yl)-3,5-diethoxybenzoic acid] | 5.10 to 6.00
